In ChEMBL document CHEMBL1770149, “Semisynthesis of triptolide analogues: effect of γ-lactone and C-14 substituents on cytotoxic activities” (Bioorg Med Chem Lett, 2011):

Legend:
[1] = test system: HT-29; test: Cytotoxicity against human HT-29 cells; type: functional, cell-based
[2] = test system: A549; test: Cytotoxicity against human A549 cells; type: functional, cell-based

Row | Structure (SMILES) | IC50 [1] [µM] | IC50 [2] [µM]
1 | Cc1occ2c1CC[C@H]1[C@H]2C[C@@H]2O[C@@]23[C@H](O)[C@@]2(C(C)C)O[C@H]2[C@@H]2O[C@@]123 | 2.01 | 7.85
2 | Cc1occ2c1CC[C@H]1[C@H]2C[C@@H]2O[C@]23[C@]12O[C@H]2[C@@H]1O[C@]1(C(C)C)[C@]3(C)O | > 13.4 | > 13.4
3 | CC(C)[C@]12O[C@H]1[C@@H]1O[C@@]13[C@@]1(C)CCC4=C(COC4=O)[C@@H]1C[C@@H]1O[C@@]13C2=O [TRIPTONIDE] | 0.0084 | 0.053
4 | CC(C)[C@]12O[C@H]1[C@@H]1O[C@@]13[C@H]1CCC4=C(COC4=O)[C@@H]1C[C@@H]1O[C@@]13[C@]21CO1 | 0.00065 | 0.053
5 | CC(C)[C@]12O[C@H]1[C@@H]1O[C@@]13[C@H]1CCC4=C(COC4=O)[C@@H]1C[C@@H]1O[C@@]13[C@H]2O | 0.078 | 1.69
6 | CC(=O)O[C@@]12CO[C@@H]1C[C@H](O)[C@@]1(C)C(=O)[C@H](O)C3=C(C)[C@@H](OC(=O)[C@H](O)[C@@H](NC(=O)OC(C)(C)C)c4ccccc4)C[C@@](O)([C@@H](OC(=O)c4ccccc4)[C@H]21)C3(C)C [DOCETAXEL] | 0.00075 | 0.0012
7 | CC[C@@]1(O)[C@]23O[C@H]2C[C@H]2C4=C(CC[C@@H]2[C@@]32O[C@H]2[C@@H]2O[C@@]21C(C)C)C(=O)OC4 | 0.39 | 2.83
8 | Cc1occ2c1CC[C@H]1[C@H]2C[C@@H]2O[C@]23[C@]12O[C@H]2[C@@H]1O[C@]1(C(C)C)[C@@]3(C)O | > 13.4 | > 13.4
9 | CCc1c2c(nc3ccc(O)cc13)-c1cc3c(c(=O)n1C2)COC(=O)[C@]3(O)CC [7-ETHYL-10-HYDROXYCAMPTOTHECIN] | 0.0059 | 0.047
10 | CC(C)[C@]12O[C@H]1[C@@H]1O[C@@]13[C@H]1CCC4=C(COC4=O)[C@@H]1C[C@@H]1O[C@@]13[C@@]2(C)O | 0.022 | 0.35
11 | CC(C)[C@]12O[C@H]1[C@@H]1O[C@]13[C@]1(O[C@H]1C[C@H]1C4=C(CC[C@@]13C)C(=O)OC4)[C@@H]2O [TRIPTOLIDE] | 0.0021 | 0.019
12 | CCc1occ2c1CC[C@H]1[C@H]2C[C@@H]2O[C@@]23[C@H](O)[C@@]2(C(C)C)O[C@H]2[C@@H]2O[C@@]123 | > 13.4 | > 13.4
